Columns and labels:
guinea pig [1] = assay: Delayed hypersensitivity skin test to arsanilic tyrosine after immunisation with antigen mixture plus test compound in FIA; format: in vivo; details: s.c. in FIA emulsion, skin test day 14, read at 24 hours, relative to FIA = 1
Experimental: (§1) The antigen mixture used consists of 20 μg. of arsanilic tyrosine and 100 μg. of protein [either bovine serum albumin (BSA) or ovalbumin]. The antigen mixture and the compounds to be tested, at the dose levels per guinea pig shown in the Table below, are dissolved in saline and emulsified with an equal volume of Freund's Incomplete Adjuvant (FIA). Groups of ten guinea pigs are used for each test compound and each guinea pig is injected with 0.1 ml. of the above emulsion, subcutaneously, in the nuchal region. Control groups are given the antigen mixture alone emulsified with FIA.
After 14 days, all animals are skin tested using 25 μg arsanilic tyrosine conjugated to either BSA or ovalbumin (BSA is used in this test when ovalbumin is present in the antigen mixture and vice versa) which is given in 0.1 ml saline intradermally in the flanks of the animals. The potencies of the test compounds in stimulating the delayed hypersensitivity reaction are then computed by multiplying the average area of the skin reaction at 24 hours by a number from 1 to 3 which is a measure of the amount of infiltration observed in each skin reaction. Thus, the procedure is as follows: skin tests with a high degree of infiltration are scored as ++ and assigned the number 3; those with a lesser degree are scored as + and given the number 2, whereas skin reactions with no infiltration are scored as zero and assigned the number 1. These numbers are then totaled for the animals in a group and the average number obtained is then multiplied by the average area of the observed skin reaction. There is thus included in the potencies the amount of infiltration coupled with the average area observed in the skin test.

guinea pig [2] = assay: Antibody titre (antibovine serum albumin or antiovalbumin) in sera by passive hemagglutination or Farr radioimmune assay; format: in vivo; details: s.c. in FIA emulsion, sera of day 42, relative to FIA = 1
Experimental: as §1
On day 42 all animals are bled by cardiac puncture and the sera assayed for antibovine serum albumin or antiovalbumin antibodies by the passive hemagglutination technique or by radioimmune assay using the Farr technique (P. Minden and R. S. Farr in "Handbook of Experimental Immunology", edited by D. M. Weir, Chapter 15, Volume 1, Blackwell Scientific Publications, Oxford) using ^125 iodine labeled bovine serum albumin. Average potencies of these assays are presented in Column 2 of the Table below relative to FIA having the value of one.

SMILES	Average Potency, Delayed Hypersensitivity to Arsanilic Tyrosine (guinea pig [1]; dose 50 μg per guinea pig)	Average Potency, Antibody Titre (guinea pig [2]; dose 50 μg per guinea pig)	Average Potency, Delayed Hypersensitivity to Arsanilic Tyrosine (guinea pig [1]; dose 20 μg per guinea pig)	Average Potency, Antibody Titre (guinea pig [2]; dose 20 μg per guinea pig)
CC(=O)N[C@H]1C(O)O[C@H](CO)[C@@H](O)[C@@H]1O[C@H](C)C(=O)N[C@@H](C)C(=O)N[C@H](CCC(=O)O)C(N)=O (stereo partly drawn) [2-(2-acetamido-2-deoxy-D-glucos-3-O-yl)-D-propionyl-L-alanyl-D-isoglutamine, reference compound]	3.3	3.7		
CC(=O)N[C@H]1C(O)O[C@H](CO)[C@@H](O)[C@@H]1O[C@H](C)C(=O)N[C@@H](CC(C)C)C(=O)N[C@H](CCC(=O)O)C(N)=O (stereo partly drawn) [2-(2-acetamido-2-deoxy-D-glucos-3-O-yl)-D-propionyl-L-leucyl-D-isoglutamine]	7.5	5.3		
CC(=O)N[C@H]1C(O)O[C@H](CO)[C@@H](O)[C@@H]1O[C@H](C)C(=O)N[C@@H](CCCCN)C(=O)N[C@H](CCC(=O)O)C(N)=O (stereo partly drawn) [2-(2-acetamido-2-deoxy-D-glucos-3-O-yl)-D-propionyl-L-lysyl-D-isoglutamine]			0.9	1.2
CC(=O)N[C@H]1C(O)O[C@H](CO)[C@@H](O)[C@@H]1O[C@H](C)C(=O)N[C@@H](Cc1ccccc1)C(=O)N[C@H](CCC(=O)O)C(N)=O (stereo partly drawn) [2-(2-acetamido-2-deoxy-D-glucos-3-O-yl)-D-propionyl-L-phenylalanyl-D-isoglutamine]	7.2	7.1		
CC(=O)N[C@H]1C(O)O[C@H](CO)[C@@H](O)[C@@H]1O[C@H](C)C(=O)N1CCC[C@H]1C(=O)N[C@H](CCC(=O)O)C(N)=O (stereo partly drawn) [2-(2-acetamido-2-deoxy-D-glucos-3-O-yl)-D-propionyl-L-prolyl-D-isoglutamine]	6.6	7.0		
CC(=O)N[C@H]1C(O)O[C@H](CO)[C@@H](O)[C@@H]1O[C@H](C)C(=O)N[C@@H](Cc1ccc(O)cc1)C(=O)N[C@H](CCC(=O)O)C(N)=O (stereo partly drawn) [2-(2-acetamido-2-deoxy-D-glucos-3-O-yl)-D-propionyl-L-tyrosyl-D-isoglutamine]			6.5	2.3
CC(=O)N[C@H]1C(O)O[C@H](CO)[C@@H](O)[C@@H]1O[C@H](C)C(=O)N[C@H](C(=O)N[C@H](CCC(=O)O)C(N)=O)C(C)C (stereo partly drawn) [2-(2-acetamido-2-deoxy-D-glucos-3-O-yl)-D-propionyl-L-valyl-D-isoglutamine]	7.1	4.0		

Reference: US4082736A, “Novel immunological adjuvant compounds and methods of preparation thereof” (Syntex (U.S.A.) Inc., priority 1976, dated 1978)
